Test results as given in patent US7445765B2, “Radiopharmaceutical for diagnostic imaging containing a technetium-99m nitride heterocomplex” (Nihon Medi-Physics Co., Ltd., priority 2000, dated 2008).

Test: Biodistribution of the 99mTc(N) heterocomplexes in rats (organ uptake, heart accumulation, heart/lung and heart/liver ratios)
Format: in vivo, female Sprague-Dawley rats
Conditions: rats
Experimental: The biodistribution was measured by using female Sprague-Dawley rats (SD rats) weighing 200 g to 250 g. Each of the ^99mTc(N) heterocomplexes purified in the manner described above was diluted with phosphate buffer (0.1 M, pH=7.4) to obtain a final solution having an ethanol content of 10%. After the SD rats were anesthetized with an intramuscular injection of a mixture of ketamine (80 mg/kg) and xilazine (19 mg/kg), the jugular vein of each rat was surgically exposed and 100 μL (300 to 370 kBq) of the solution containing each ^99mTc(N) heterocomplexes prepared in the manner described above was injected in the jugular vein. The rats (n=3) were sacrificed by cervical dislocation at different times post injection. The blood was withdrawn from the heart through a syringe and counted. It was assumed that the whole blood content was 6.5% of the total body weight. The organs were excised from the rats, washed with physiological saline, weighed, and counted in a NaI well counter.
For comparison, Tables 19 and 20 show the results, obtained in the same manner as above, of measuring the biodistribution of (^99mTc) (MIBI) and (^99mTc) (Tf) which have been used as pharmaceuticals for diagnostic imaging for blood flow in myocardium.
Tables 21 to 23 show data showing the variations with time of heart accumulation, heart/lung ratios and heart/liver ratios for the ^99mTc(N) heterocomplexes of the present invention.

Structure (SMILES): CCOCCC[P]1(CCCOCC)CCN(CCOCC)CC[P](CCCOCC)(CCCOCC)[99Tc+]12(#[N])[S]C(N(CCOCC)CCOCC)=[S]2 [PNP6•DBODC]
- Biodistribution, Adrenal glands (0 min): 2.60 % dose/g
- Biodistribution, Blood (0 min): 1.42 % dose/g
- Biodistribution, Brain (0 min): 0.18 % dose/g
- Biodistribution, Heart (0 min): 2.26 % dose/g
- Biodistribution, Intestine (0 min): 2.91 % dose/g
- Biodistribution, Kidneys (0 min): 5.56 % dose/g
- Biodistribution, Liver (0 min): 3.59 % dose/g
- Biodistribution, Lungs (0 min): 3.87 % dose/g
- Biodistribution, Muscle (0 min): 0.06 % dose/g
- Biodistribution, Spleen (0 min): 1.68 % dose/g
- Biodistribution, Submax. glands (0 min): 1.17 % dose/g
- Biodistribution, Adrenal glands (2 min): 3.49 % dose/g
- Biodistribution, Blood (2 min): 0.17 % dose/g
- Biodistribution, Brain (2 min): 0.03 % dose/g
- Biodistribution, Heart (2 min): 1.241 % dose/g
- Biodistribution, Intestine (2 min): 3.54 % dose/g
- Biodistribution, Kidneys (2 min): 9.57 % dose/g
- Biodistribution, Liver (2 min): 5.94 % dose/g
- Biodistribution, Lungs (2 min): 1.25 % dose/g
- Biodistribution, Muscle (2 min): 0.17 % dose/g
- Biodistribution, Spleen (2 min): 3.85 % dose/g
- Biodistribution, Submax. glands (2 min): 1.26 % dose/g
- Biodistribution, Adrenal glands (10 min): 4.48 % dose/g
- Biodistribution, Blood (10 min): 0.06 % dose/g
- Biodistribution, Brain (10 min): 0.03 % dose/g
- Biodistribution, Heart (10 min): 1.39 % dose/g
- Biodistribution, Intestine (10 min): 6.21 % dose/g
- Biodistribution, Kidneys (10 min): 9.80 % dose/g
- Biodistribution, Liver (10 min): 7.71 % dose/g
- Biodistribution, Lungs (10 min): 1.10 % dose/g
- Biodistribution, Muscle (10 min): 0.16 % dose/g
- Biodistribution, Spleen (10 min): 4.00 % dose/g
- Biodistribution, Submax. glands (10 min): 1.27 % dose/g
- Biodistribution, Adrenal glands (20 min): 3.19 % dose/g
- Biodistribution, Blood (20 min): 0.03 % dose/g
- Biodistribution, Brain (20 min): 0.03 % dose/g
- Biodistribution, Heart (20 min): 1.18 % dose/g
- Biodistribution, Intestine (20 min): 8.54 % dose/g
- Biodistribution, Kidneys (20 min): 8.18 % dose/g
- Biodistribution, Liver (20 min): 6.55 % dose/g
- Biodistribution, Lungs (20 min): 0.80 % dose/g
- Biodistribution, Muscle (20 min): 0.09 % dose/g
- Biodistribution, Spleen (20 min): 3.13 % dose/g
- Biodistribution, Submax. glands (20 min): 1.03 % dose/g
- Biodistribution, Adrenal glands (30 min): 3.08 % dose/g
- Biodistribution, Blood (30 min): 0.05 % dose/g
- Biodistribution, Brain (30 min): 0.02 % dose/g
- Biodistribution, Heart (30 min): 1.05 % dose/g
- Biodistribution, Intestine (30 min): 7.75 % dose/g
- Biodistribution, Kidneys (30 min): 7.52 % dose/g
- Biodistribution, Liver (30 min): 4.66 % dose/g
- Biodistribution, Lungs (30 min): 0.60 % dose/g
- Biodistribution, Muscle (30 min): 0.11 % dose/g
- Biodistribution, Spleen (30 min): 2.43 % dose/g
- Biodistribution, Submax. glands (30 min): 1.08 % dose/g
- Biodistribution, Adrenal glands (60 min): 3.49 % dose/g
- Biodistribution, Blood (60 min): 0.02 % dose/g
- Biodistribution, Brain (60 min): 0.01 % dose/g
- Biodistribution, Heart (60 min): 1.10 % dose/g
- Biodistribution, Intestine (60 min): 8.37 % dose/g
- Biodistribution, Kidneys (60 min): 6.60 % dose/g
- Biodistribution, Liver (60 min): 3.55 % dose/g
- Biodistribution, Lungs (60 min): 0.48 % dose/g
- Biodistribution, Muscle (60 min): 0.12 % dose/g
- Biodistribution, Spleen (60 min): 2.64 % dose/g
- Biodistribution, Submax. glands (60 min): 1.30 % dose/g
- Biodistribution, Adrenal glands (120 min): 3.47 % dose/g
- Biodistribution, Blood (120 min): 0.02 % dose/g
- Biodistribution, Brain (120 min): 0.01 % dose/g
- Biodistribution, Heart (120 min): 1.29 % dose/g
- Biodistribution, Intestine (120 min): 9.70 % dose/g
- Biodistribution, Kidneys (120 min): 8.83 % dose/g
- Biodistribution, Liver (120 min): 2.55 % dose/g
- Biodistribution, Lungs (120 min): 0.33 % dose/g
- Biodistribution, Muscle (120 min): 0.14 % dose/g
- Biodistribution, Spleen (120 min): 2.02 % dose/g
- Biodistribution, Submax. glands (120 min): 1.36 % dose/g

Structure (SMILES): CCOCCN1CC[P](CCCOC)(CCCOC)[99Tc+]2(#[N])([S]C(N(CCOCC)CCOCC)=[S]2)[P](CCCOC)(CCCOC)CC1 [[^99mTc(N) (PNP5) (DBODC)^+]]
- Heart/liver ratio in biodistribution (0 min): 6.11
- Heart/lung ratio in biodistribution (0 min): 0.76
- Heart/liver ratio in biodistribution (2 min): 1.48
- Heart/lung ratio in biodistribution (2 min): 3.98
- Heart/liver ratio in biodistribution (10 min): 2.29
- Heart/lung ratio in biodistribution (10 min): 4.19
- Heart/liver ratio in biodistribution (20 min): 3.78
- Heart/lung ratio in biodistribution (20 min): 6.37
- Heart/liver ratio in biodistribution (30 min): 5.18
- Heart/lung ratio in biodistribution (30 min): 5.83
- Heart/liver ratio in biodistribution (60 min): 18.8
- Heart/lung ratio in biodistribution (60 min): 8.17
- Heart/liver ratio in biodistribution (120 min): 33.1
- Heart/lung ratio in biodistribution (120 min): 13.24
